Entries after “also recorded” stand apart in the source; their conditions may differ.
Experiment: Compatibility study of homogeneous mixtures of the active ingredients (appearance and impurities after storage)
Format: physicochemical
Details: conclusion from the four-week mixture study
Description: Study was designed so as to evaluate the physico-chemical parameters of these three drugs.

Structure (SMILES): Nc1ccn([C@@H]2CS[C@H](CO)O2)c(=O)n1 [Lamivudine, (2R-cis)-4-Amino-1-[2-(hydroxymethyl) 1,3-oxathiolan-5-yl]-2(1H)-pyrimidinone]
- Compatibility with the other active ingredient: compatible with Nevirapine; also recorded: not with Stavudine

Structure (SMILES): Cc1cn([C@H]2C=C[C@@H](CO)O2)c(=O)[nH]c1=O [stavudine, (3′-deoxythymidin-2′-ene(3′-deoxy-2′,3′-didehydrothymidine)]
- Compatibility with the other active ingredient: incompatible with nevirapine

Source: patent US20080241265A1, “Pharmaceutical Combinations Containing Lamivudine, Stavudine and Nevirapine” (priority 2005, published 2008)
